Reference: article PMC7377239, “Cardiovascular Effects of Polychlorinated Biphenyls and Their Major Metabolites” (Environmental Health Perspectives, 2020)
Where two headings read alike, the source gives them in different places.

Columns and labels:
[1] = tested on: iCell cardiomyocytes (human iPSC-derived cardiomyocytes); assay: High-content imaging of cytotoxicity and mitochondrial integrity in iPSC-CMs; assay type: cell-based; details: Homo sapiens; for viability at 0.01 µM / activity at 0.01 µM / viability at 0.1 µM / activity at 0.1 µM / viability at 1 µM / activity at 1 µM / viability at 10 µM / activity at 10 µM / viability at 100 µM / activity at 100 µM: 0.00 µM = 100.00; for viability at 0.1 µM / activity at 0.1 µM: 0.10 µM
Summary of the method: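 This assay measured cytotoxicity and mitochondrial integrity in iPSC cardiomyocytes held in 40μL maintenance medium. After compound exposure, a 2× staining solution with Hoechst 33342 (4μg/mL) and MitoTracker™ Orange (0.4μM) was applied for 15 min at 37°C. Cells were washed, fixed with 3.7% formaldehyde, imaged on DAPI and Cy3 channels, and scored in MetaXpress®.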

HUVECs = assay: High-content imaging cytotoxicity in HUVECs, 24 h; assay type: cell-based, human; details: Homo sapiens, HUVEC, 24 h, HUVEC; for viability at 0.01 µM / activity at 0.01 µM / viability at 0.1 µM / activity at 0.1 µM / viability at 1 µM / activity at 1 µM / viability at 10 µM / activity at 10 µM / viability at 100 µM / activity at 100 µM: 0.00 µM = 100.00; for viability at 0.1 µM / activity at 0.1 µM: 0.10 µM
Summary of the method: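 Confluent HUVEC monolayers, passages 1–5, received test chemicals for 24 h. Cytotoxicity was scored from triple-stain high-content images, with PODs defined by a one-SD deviation from 0.5% DMSO vehicle controls.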

[2] = Cardiomyocyte, 1.5 h, read-out: cm.cam.90min
[3] = Cardiomyocyte, 1.5 h, read-out: cm.mii.90min
[4] = Cardiomyocyte, 1.5 h, read-out: cm.mito.90min
[5] = Cardiomyocyte, 1.5 h, read-out: cm.tc.90min
[6] = Cardiomyocyte, 24 h, read-out: cm.cam.24hrs
[7] = Cardiomyocyte, 24 h, read-out: cm.mii.24hrs
[8] = Cardiomyocyte, 24 h, read-out: cm.mito.24hrs
[9] = Cardiomyocyte, 24 h, read-out: cm.tc.24hrs
[10] = HUVECs, 24 hr, read-out: huvec.cyto.24hr
[11] = HUVECs, 24 hr, read-out: huvec.mito.24hr
[12] = HUVECs, 24 hr, read-out: huvec.mitoint.24hr
[13] = HUVECs, 24 hr, read-out: huvec.nma.24hr
[14] = HUVECs, 24 hrs, read-out: huvec.tc.24hrs

SMILES: O=C1C=CC(=O)C(c2ccc(Cl)cc2)=C1 [4-Cl-BQ, 2-(4-Chlorophenyl)benzo-2,5-quinone]
- viability at 0.01 µM [1, 2]: 103%
- activity at 0.01 µM [1, 3]: 106%
- activity at 0.01 µM [1, 4]: 103%
- viability at 0.01 µM [1, 5]: 103%
- viability at 0.1 µM [1, 2]: 96.5%
- activity at 0.1 µM [1, 3]: 116%
- activity at 0.1 µM [1, 4]: 95.9%
- viability at 0.1 µM [1, 5]: 96.2%
- viability at 1 µM [1, 2]: 100%
- activity at 1 µM [1, 3]: 117%
- activity at 1 µM [1, 4]: 100%
- viability at 1 µM [1, 5]: 100%
- viability at 10 µM [1, 2]: 103%
- activity at 10 µM [1, 3]: 91.5%
- activity at 10 µM [1, 4]: 102%
- viability at 10 µM [1, 5]: 103%
- viability at 100 µM [1, 2]: 29.9%
- activity at 100 µM [1, 3]: 8.08%
- activity at 100 µM [1, 4]: 0.09%
- viability at 100 µM [1, 5]: 100%
- minimal effective concentration ([1]; Cardiomyocyte, 1.5 h, cardiomyocytes (cm), cam, 90 min, read-out: POD cm.cam.90min): 37.6 µM
- minimal effective concentration ([1]; Cardiomyocyte, 1.5 h, cardiomyocytes (cm), mii, 90 min, read-out: POD cm.mii.90min): 9.33 µM
- minimal effective concentration ([1]; Cardiomyocyte, 1.5 h, cardiomyocytes (cm), mito, 90 min, read-out: POD cm.mito.90min): 38.7 µM
- minimal effective concentration ([1]; Cardiomyocyte, 1.5 h, cardiomyocytes (cm), tc, 90 min, read-out: POD cm.tc.90min): 100 µM
- viability at 0.01 µM [1, 6]: 92.6%
- activity at 0.01 µM [1, 7]: 100%
- activity at 0.01 µM [1, 8]: 89.4%
- viability at 0.01 µM [1, 9]: 92.8%
- viability at 0.1 µM [1, 6]: 98.4%
- activity at 0.1 µM [1, 7]: 110%
- activity at 0.1 µM [1, 8]: 96.5%
- viability at 0.1 µM [1, 9]: 99.1%
- viability at 1 µM [1, 6]: 105%
- activity at 1 µM [1, 7]: 97.3%
- activity at 1 µM [1, 8]: 103%
- viability at 1 µM [1, 9]: 105%
- viability at 10 µM [1, 6]: 51.1%
- activity at 10 µM [1, 7]: 128%
- activity at 10 µM [1, 8]: 50.9%
- viability at 10 µM [1, 9]: 50.4%
- viability at 100 µM [1, 6]: 66.6%
- activity at 100 µM [1, 7]: 0.9%
- activity at 100 µM [1, 8]: 0.05%
- viability at 100 µM [1, 9]: 100%
- minimal effective concentration ([1]; Cardiomyocyte, 24 h, cardiomyocytes (cm), cam, 24 hrs, read-out: POD cm.cam.24hrs): 0.06 µM
- minimal effective concentration ([1]; Cardiomyocyte, 24 h, cardiomyocytes (cm), mii, 24 hrs, read-out: POD cm.mii.24hrs): 46.4 µM
- minimal effective concentration ([1]; Cardiomyocyte, 24 h, cardiomyocytes (cm), mito, 24 hrs, read-out: POD cm.mito.24hrs): 3.85 µM
- minimal effective concentration ([1]; Cardiomyocyte, 24 h, cardiomyocytes (cm), tc, 24 hrs, read-out: POD cm.tc.24hrs): 100 µM
- minimal effective concentration ([1]; iPSC-CM, 1.5 h, iPSC-CM, read-out: cm.cam.90min POD): 37.6 µM
- minimal effective concentration ([1]; iPSC-CM, 1.5 h, iPSC-CM, read-out: cm.mii.90min POD): 9.33 µM
- minimal effective concentration ([1]; iPSC-CM, 1.5 h, iPSC-CM, read-out: cm.mito.90min POD): 38.7 µM
- minimal effective concentration ([1]; iPSC-CM, 1.5 h, iPSC-CM, read-out: cm.tc.90min POD): 100 µM
- minimal effective concentration ([1]; iPSC-CM, 24 h, iPSC-CM, read-out: cm.cam.24hrs POD): 0.06 µM
- minimal effective concentration ([1]; iPSC-CM, 24 h, iPSC-CM, read-out: cm.mii.24hrs POD): 46.4 µM
- minimal effective concentration ([1]; iPSC-CM, 24 h, iPSC-CM, read-out: cm.mito.24hrs POD): 3.85 µM
- minimal effective concentration ([1]; iPSC-CM, 24 h, iPSC-CM, read-out: cm.tc.24hrs POD): 100 µM
- minimal effective concentration (HUVECs; cyto, 24 hr, read-out: POD huvec.cyto.24hr): 0.00637 µM
- minimal effective concentration (HUVECs; mito, 24 hr, read-out: POD huvec.mito.24hr): 0.08 µM
- minimal effective concentration (HUVECs; mitoint, 24 hr, read-out: POD huvec.mitoint.24hr): 0.68 µM
- minimal effective concentration (HUVECs; nma, 24 hr, read-out: POD huvec.nma.24hr): 0.53 µM
- minimal effective concentration (HUVECs; tc, 24 hr, read-out: POD huvec.tc.24hr): 0.00637 µM
- viability at 0.01 µM (HUVECs; [10]): 89.2%
- activity at 0.01 µM (HUVECs; [11]): 87.8%
- activity at 0.01 µM (HUVECs; [12]): 92.4%
- activity at 0.01 µM (HUVECs; [13]): 101%
- viability at 0.1 µM (HUVECs; [10]): 101%
- activity at 0.1 µM (HUVECs; [11]): 101%
- activity at 0.1 µM (HUVECs; [12]): 105%
- activity at 0.1 µM (HUVECs; [13]): 101%
- viability at 1 µM (HUVECs; [10]): 75.5%
- activity at 1 µM (HUVECs; [11]): 69.3%
- activity at 1 µM (HUVECs; [12]): 58.6%
- activity at 1 µM (HUVECs; [13]): 81.8%
- viability at 10 µM (HUVECs; [10]): 56%
- activity at 10 µM (HUVECs; [11]): 30.5%
- activity at 10 µM (HUVECs; [12]): 10.8%
- activity at 10 µM (HUVECs; [13]): 74.2%
- viability at 100 µM (HUVECs; [10]): 87.4%
- activity at 100 µM (HUVECs; [11]): 1.29%
- activity at 100 µM (HUVECs; [12]): 44%
- activity at 100 µM (HUVECs; [13]): 73.5%
- minimal effective concentration (HUVECs; HUVECs, 24 hr, top concentration 100.00 µM, read-out: huvec.cyto.24hr POD): 0.00637 µM
- minimal effective concentration (HUVECs; HUVECs, 24 hr, top concentration 100.00 µM, read-out: huvec.mito.24hr POD): 0.08 µM
- minimal effective concentration (HUVECs; HUVECs, 24 hr, top concentration 100.00 µM, read-out: huvec.mitoint.24hr POD): 0.68 µM
- minimal effective concentration (HUVECs; HUVECs, 24 hr, top concentration 100.00 µM, read-out: huvec.nma.24hr POD): 0.53 µM
- viability at 0.01 µM (HUVECs; [14]): 89.3%
- viability at 0.1 µM (HUVECs; [14]): 101%
- viability at 1 µM (HUVECs; [14]): 75.5%
- viability at 10 µM (HUVECs; [14]): 56%
- viability at 100 µM (HUVECs; [14]): 99.4%
- minimal effective concentration (HUVECs; HUVECs, 24 hrs, top concentration 100.00 µM, read-out: huvec.tc.24hrs POD): 0.00637 µM
